Assay results: ChEMBL document CHEMBL3714749, “Quinoxaline derivatives as gpr6 modulators” (2014)

Each molecule was assayed against G-protein coupled receptor 6 (Homo sapiens, UniProt P46095) (assay: Activity at GPR6 (unknown origin) expressed in CHOK1 cells assessed as inhibition of constitutive cAMP activity incubated for 45 mins by HTRF based cAMP detection assay).
Sequence of G-protein coupled receptor 6 (P46095 whole entry): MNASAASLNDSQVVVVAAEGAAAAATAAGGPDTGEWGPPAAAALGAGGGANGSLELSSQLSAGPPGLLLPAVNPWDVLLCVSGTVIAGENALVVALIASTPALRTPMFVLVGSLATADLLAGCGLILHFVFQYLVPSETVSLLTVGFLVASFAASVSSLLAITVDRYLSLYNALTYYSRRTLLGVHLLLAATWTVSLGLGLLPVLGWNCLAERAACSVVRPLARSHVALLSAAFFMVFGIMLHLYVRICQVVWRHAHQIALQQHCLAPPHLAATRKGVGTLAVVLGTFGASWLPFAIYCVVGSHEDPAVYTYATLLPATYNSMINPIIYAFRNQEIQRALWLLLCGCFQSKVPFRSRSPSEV
Type: functional, cell-based, CHO-K1
`Cc1nccc2nc(NC3CC3)c(N3CCC(Cn4ccc(F)cc4=O)CC3)nc12` showed an IC50 of 380 nM. For `Clc1ccc(Cl)c(CN2CCN(c3nc4ccccc4nc3NC3CCOCC3)CC2)c1`, the IC50 was 4070 nM. `O=C(c1cccnc1Br)C1CCN(c2nc3cnccc3nc2NC2CC2)CC1` showed an IC50 of 2740 nM. `Cc1cc(CN2CCN(c3nc4ccccc4nc3NC3CC3)CC2)no1` showed an IC50 of 105000 nM. Molecule `Cc1cc2nc(NC3CC3)c(N3CCC(Cn4cc(Cl)ccc4=O)CC3)nc2cn1` has an IC50 of 770 nM. Molecule `O=C(c1ccc(Cl)c(Cl)c1)N1CCN(c2nc3ccccc3nc2NC2CC2)CC1` has an IC50 of 79600 nM. `O=C(c1cc(Cl)ccc1Cl)N1CCN(c2nc3ccccc3nc2NC2CC2)CC1` gave an IC50 of 6640 nM. For `COc1ccc(OC2CCN(c3nc4cnncc4nc3NC3CC3)CC2)c(F)c1`, the IC50 was 20 nM. Work on `Fc1ccc(Cl)cc1CN1CCN(c2nc3cnccc3nc2NC2CC2)CC1` yielded an IC50 of 29 nM. Work on `Fc1cc(F)c(CN2CCN(c3nc4cnccc4nc3NC3CC3)CC2)cc1F` yielded an IC50 of 50 nM. For `COc1ccc(CN2CCN(c3nc4cnc(N5CCOCC5)cc4nc3NC3CC3)CC2)c(F)c1`, the IC50 was 92 nM. `Fc1ccc(F)c(CN2CCN(c3nc4cnccc4nc3NC3CC3)CC2)c1` gave an IC50 of 120 nM. Molecule `N#Cc1cc2nc(NC3CC3)c(N3CCC(Cc4ccc(F)cc4F)CC3)nc2cn1` has an IC50 of 15 nM. Molecule `N#Cc1ccc2nc(NC3CC3)c(N3CCN(S(=O)(=O)c4ccccc4Br)CC3)nc2c1` has an IC50 of 1850 nM. Work on `O=C(c1cc2nc(NC3CC3)c(N3CCC([C@@H](F)c4ccc(F)cc4F)CC3)nc2cn1)N1CCC1F` (some centres not stated) yielded an IC50 of 26 nM. In the case of `N#Cc1ccc2nc(NC3CC3)c(N3CCN(S(=O)(=O)c4ccc(Br)s4)CC3)nc2c1`, the IC50 is reported as 420 nM. In the case of `COCCNc1nc2ccc(C#N)cc2nc1N1CCC(Cc2ccc(F)cc2F)CC1`, the IC50 is reported as 250 nM. In the case of `CC(O)c1ccc(OC2CCN(c3nc4cnccc4nc3NC3CC3)CC2)cc1` (configuration not stated), the IC50 is reported as 6040 nM. For `COc1ccc(OC2CCN(c3nc4ccncc4nc3NC(C)C)CC2)c(F)c1`, the IC50 was 12 nM. For `N#Cc1ccc2nc(NC3CC3)c(N3CCN(S(=O)(=O)c4ccc(OC(F)(F)F)cc4)CC3)nc2c1`, the IC50 was 4290 nM. With `N#Cc1ccc2nc(Nc3cccnc3)c(N3CCC(Cc4ccc(F)cc4F)CC3)nc2c1` the IC50 was 390 nM. For `O=C(c1csc(Cl)c1)C1CCN(c2nc3cnccc3nc2NC2CC2)CC1`, the IC50 was 4810 nM. `Fc1ccc(OC2CCN(c3nc4cc(Br)ccc4nc3NC3CC3)CC2)c(F)c1` gave an IC50 of 1430 nM. With `Cc1ccc(S(=O)(=O)N2CCN(c3nc4cc(C#N)ccc4nc3NC3CC3)CC2)cc1` the IC50 was 4740 nM. `CN(C)C(=O)c1cc2nc(NCC(F)F)c(N3CCC(Oc4ccc(F)cc4F)CC3)nc2cn1` showed an IC50 of 65 nM. With `O=C(c1c(Cl)ccc(F)c1F)C1CCN(c2nc3cnccc3nc2NC2CC2)CC1` the IC50 was 3900 nM. `CC[C@@H](C)Nc1nc2cnncc2nc1N1CCC(Oc2ccc(OC)cc2F)CC1` showed an IC50 of 30 nM. In the case of `CCOc1ccc(OC2CCN(c3nc4cnccc4nc3NC3CC3)CC2)cc1`, the IC50 is reported as 1020 nM. With `Fc1ccc(CN2CCN(c3nc4ccncc4nc3NCC(F)F)CC2)c(F)c1` the IC50 was 230 nM. Work on `COc1ccc(C(=O)C2CCN(c3nc4cnncc4nc3NC(C)C)CC2)c(F)c1` yielded an IC50 of 54 nM. For `Cc1cc(C(=O)N2CCN(c3nc4ccccc4nc3NC3CC3)CC2)ccc1Cl`, the IC50 was 720 nM. `O=S(=O)(c1ccccc1)N1CCN(c2nc3cc(F)ccc3nc2NC2CC2)CC1` gave an IC50 of 9440 nM. For `N#Cc1cc2nc(NC3CC3)c(N3CCC([C@H](F)c4ccc(F)cc4F)CC3)nc2cn1`, the IC50 was 11 nM. `Clc1ccc(Cl)c(CN2CCN(c3nc4cnccc4nc3NC3CC3)CC2)c1` was tested, and the IC50 was 32 nM. For `Cc1cc(S(=O)(=O)N2CCN(c3nc4cc(C#N)ccc4nc3NC3CC3)CC2)c(C)cc1Cl`, the IC50 was 450 nM. With `Clc1ccc(Cl)c(CN2CCN(c3nc4ccncc4nc3NC3CC3)CC2)c1` the IC50 was 56 nM. `O=C(c1cc(Cl)ccc1F)C1CCN(c2nc3cnccc3nc2NC2CC2)CC1` was tested, and the IC50 was 35 nM. `N#Cc1ccc2nc(NC3CC3)c(N3CCC(Oc4ccc(F)cc4F)CC3)nc2c1` showed an IC50 of 90 nM. With `N#Cc1cc2nc(NC3CC3)c(N3CCC([C@@H](F)c4ccc(F)cc4F)CC3)nc2cn1` the IC50 was 17 nM. `CC(C)Nc1nc2cc(C(=O)N(C)C)ncc2nc1N1CCC(Oc2ccc(Cl)cc2F)CC1` showed an IC50 of 6 nM. Molecule `CN(C)C(=O)c1cc2nc(NC3CC3)c(N3CCC(Oc4ccc(F)cc4F)CC3)nc2cn1` has an IC50 of 5 nM. `CC(C)Nc1nc2ccc(C#N)cc2nc1N1CCC([C@@H](F)c2ccc(F)cc2F)CC1` gave an IC50 of 49 nM. In the case of `O=C(c1ccsc1)C1CCN(c2nc3cnccc3nc2NC2CC2)CC1`, the IC50 is reported as 2290 nM. `O=C(c1c(F)cc(Cl)cc1F)C1CCN(c2nc3cnccc3nc2NC2CC2)CC1` gave an IC50 of 200 nM. `Fc1cc2nc(NC3CC3)c(N3CCN(Cc4cc(Cl)ccc4Cl)CC3)nc2cc1F` gave an IC50 of 800 nM. Molecule `CC(=O)c1ccc(OC2CCN(c3nc4cnccc4nc3NC3CC3)CC2)cc1` has an IC50 of 1740 nM. `N#Cc1cccc2nc(NC3CC3)c(N3CCN(Cc4cc(Cl)ccc4Cl)CC3)nc12` was tested, and the IC50 was 650 nM. `CC(C)Nc1nc2cnncc2nc1N1CCC([C@@H](F)c2ccc(F)cc2F)CC1` showed an IC50 of 14 nM. Work on `O=C(c1c(F)cccc1F)C1CCN(c2nc3cnccc3nc2NC2CC2)CC1` yielded an IC50 of 2180 nM. `N#Cc1ccc2nc(NC3CCC3)c(N3CCN(C(=O)c4ccc(Cl)cc4)CC3)nc2c1` showed an IC50 of 300 nM. For `COc1ccc2nc(N3CCN(Cc4cc(Cl)ccc4Cl)CC3)c(NC3CC3)nc2c1`, the IC50 was 3360 nM. `Cc1nccc2nc(NC3CC3)c(N3CCC(C(F)c4ccc(F)cc4F)CC3)nc12` (configuration not stated) gave an IC50 of 9 nM. For `N#Cc1nccc2nc(NC3CC3)c(N3CCN(Cc4ccc(F)cc4F)CC3)nc12`, the IC50 was 66 nM. `Fc1ccc(OC2CCN(c3nc4ccncc4nc3NC3CCC3)CC2)c(F)c1` showed an IC50 of 14 nM. Work on `COCCNc1nc2ccc(C#N)cc2nc1N1CCC(C(F)c2ccc(F)cc2F)CC1` (configuration not stated) yielded an IC50 of 340 nM. Work on `CC(C)OCCNc1nc2ccccc2nc1N1CCN(Cc2cc(Cl)ccc2Cl)CC1` yielded an IC50 of 3330 nM. `N#Cc1ccc2nc(NC3CC3)c(N3CCN(S(=O)(=O)c4cccc(Cl)c4)CC3)nc2c1` gave an IC50 of 5620 nM. With `Fc1ccc(OC2CCN(c3nc4cnncc4nc3NC3CC3)CC2)c(F)c1` the IC50 was 18 nM. `COc1ccc(OC2CCN(c3nc4ccncc4nc3NC3CC3)CC2)c(F)c1` showed an IC50 of 44 nM. For `Cc1nnc(Nc2nc3ccccc3nc2N2CCN(Cc3cc(Cl)ccc3Cl)CC2)nc1C`, the IC50 was 17800 nM. `CC(C)Nc1nc2cc(C(=O)N(C)C)ncc2nc1N1CCN(Cc2ccc(F)cc2F)CC1` showed an IC50 of 40 nM. Molecule `FC(F)Oc1ccc(Cl)cc1CN1CCN(c2nc3cnccc3nc2NC2CC2)CC1` has an IC50 of 270 nM. `N#Cc1ccc2nc(N3CCN(Cc4cc(Cl)ccc4Cl)CC3)c(Nc3cccnc3)nc2c1` was tested, and the IC50 was 440 nM. Molecule `COc1ccc(CC2CCN(c3nc4cnncc4nc3NC(C)C)CC2)c(F)c1` has an IC50 of 15 nM. `Clc1ccc(Cl)c(CN2CCN(c3nc4ccccc4nc3Nc3cccnn3)CC2)c1` gave an IC50 of 1670 nM. `Fc1ccc(F)c(OC2CCN(c3nc4cnccc4nc3NC3CC3)CC2)c1` was tested, and the IC50 was 1100 nM. In the case of `N#Cc1ccc(Cl)c(C(=O)C2CCN(c3nc4cnc(Cl)cc4nc3NC3CC3)CC2)c1`, the IC50 is reported as 89 nM. Molecule `N#Cc1cccc(C(=O)C2CCN(c3nc4cnccc4nc3NC3CC3)CC2)c1` has an IC50 of 7210 nM. `Fc1ccc(CN2CCN(c3nc4cnncc4nc3NC3CC3)CC2)c(F)c1` gave an IC50 of 260 nM. `Clc1ccc(OC2CCN(c3nc4cnccc4nc3NC3CC3)CC2)cc1` showed an IC50 of 310 nM. `N#Cc1ccc2nc(N3CCC(C(F)c4ccc(F)cc4F)CC3)c(NC3CC3)nc2c1` (configuration not stated) showed an IC50 of 29 nM. Work on `C[C@@H](CO)Nc1nc2ccccc2nc1N1CCN(Cc2cc(Cl)ccc2Cl)CC1` yielded an IC50 of 1570 nM. In the case of `Oc1ccc(OC2CCN(c3nc4ccncc4nc3NC3CC3)CC2)c(F)c1`, the IC50 is reported as 54 nM. Work on `COc1ccc(CC2CCN(c3nc4cnc(C#N)cc4nc3NC(C)C)CC2)c(F)c1` yielded an IC50 of 26 nM. Molecule `Clc1ccc(Cl)c(CN2CCN(c3nc4ccccc4nc3Nc3cnccn3)CC2)c1` has an IC50 of 2340 nM. `CS(=O)(=O)c1ccc(C(=O)N2CCN(c3nc4ccccc4nc3NC3CC3)CC2)cc1` gave an IC50 of 530 nM. Molecule `COc1ccc(CN2CCN(c3nc4c(C#N)nccc4nc3NC3CC3)CC2)c(F)c1` has an IC50 of 88 nM. `CC(C)Nc1nc2cnccc2nc1N1CCC(Oc2ccc(F)cc2F)CC1` was tested, and the IC50 was 20 nM. With `N#Cc1ccc2nc(NC3CC(=O)C3)c(N3CCN(Cc4cc(Cl)ccc4Cl)CC3)nc2c1` the IC50 was 97 nM. For `Fc1ccc(F)c(C(F)C2CCN(c3nc4cnccc4nc3NC3CC3)CC2)c1` (configuration not stated), the IC50 was 20 nM. `N#Cc1ccc2nc(Nc3ccon3)c(N3CCN(C(=O)c4ccc(Cl)cc4)CC3)nc2c1` gave an IC50 of 15400 nM. Work on `O=C(c1c(F)cccc1Cl)C1CCN(c2nc3cnccc3nc2NC2CC2)CC1` yielded an IC50 of 4900 nM. For `O=C(c1nccc2nc(NC3CC3)c(N3CCC([C@@H](F)c4ccc(F)cc4F)CC3)nc12)N1CCOCC1`, the IC50 was 7 nM. Work on `N#Cc1cccc(OC2CCN(c3nc4cnccc4nc3NC3CC3)CC2)c1` yielded an IC50 of 15400 nM. Molecule `N#Cc1ccc2nc(NC3CC3)c(N3CCN(S(=O)(=O)c4ccc(Cl)cc4)CC3)nc2c1` has an IC50 of 570 nM. `N#Cc1ccccc1OC1CCN(c2nc3cnccc3nc2NC2CC2)CC1` was tested, and the IC50 was 2880 nM. In the case of `N#Cc1cccc2nc(N3CCN(Cc4cc(Cl)ccc4Cl)CC3)c(NC3CC3)nc12`, the IC50 is reported as 1490 nM. `O=S(=O)(c1ccccc1)N1CCN(c2nc3ccccc3nc2Nc2cccnc2)CC1` showed an IC50 of 4630 nM. `O=C(c1cccs1)C1CCN(c2nc3cnccc3nc2NC2CC2)CC1` showed an IC50 of 6750 nM. `O=C(c1ccc(C(F)F)cc1)N1CCN(c2nc3cnccc3nc2NC2CC2)CC1` was tested, and the IC50 was 2650 nM. In the case of `Cc1cc2nc(NC3CC3)c(N3CCC(Cc4ccc(F)cc4F)CC3)nc2cn1`, the IC50 is reported as 20 nM. `N#Cc1ccc2nc(NC3CC3)c(N3CCN(Cc4cc(F)ccc4F)CC3)nc2c1` showed an IC50 of 380 nM. `Fc1cc(F)c(CN2CCN(c3nc4ccncc4nc3Nc3cccnc3)CC2)cc1F` showed an IC50 of 400 nM. Work on `Fc1ccc(CC2CCN(c3nc4ccncc4nc3NC3CC3)CC2)c(F)c1` yielded an IC50 of 27 nM. Molecule `Cc1ccccc1C(=O)C1CCN(c2nc3cnccc3nc2NC2CC2)CC1` has an IC50 of 5780 nM. `Fc1ccc(C(F)C2CCN(c3nc4cnc(Br)cc4nc3NC3CC3)CC2)c(F)c1` (configuration not stated) was tested, and the IC50 was 29 nM. Molecule `N#Cc1ccc2nc(NCCF)c(N3CCN(C(=O)c4ccc(Cl)cc4)CC3)nc2c1` has an IC50 of 960 nM. `Cc1cccc(CN2CCN(c3nc4ccccc4nc3NC3CC3)CC2)c1C` showed an IC50 of 3640 nM. `Cc1nccc2nc(NC3CC3)c(N3CCC(Oc4ccc(F)cc4F)CC3)nc12` gave an IC50 of 18 nM. Work on `COc1ccc(OC2CCN(c3nc4cnccc4nc3NC3CC3)CC2)cc1` yielded an IC50 of 190 nM. With `CC(C)Nc1nc2ccc(C#N)cc2nc1N1CCC(C(F)c2cc(F)ccc2F)CC1` (configuration not stated) the IC50 was 98 nM. For `CC(C)Nc1nc2ccncc2nc1N1CCC(C(F)c2ccc(F)cc2F)CC1` (configuration not stated), the IC50 was 29 nM.
